Reference: ChEMBL document CHEMBL1157155, “Bioactive alkenylphenols from Piper obliquum” (Bioorg Med Chem, 2008)
Values after ≈ are worked out from the molar mass of the structure shown. Active and inactive are the calls of the source. The calls are words filed in the database; no cut-off is given here.

Key:
Jurkat [1] = test: (§1) Effect on NF-kappaB expressed in Jurkat 5.1 cells assessed as inhibition of TNF-alpha-induced HIV1-LTR transactivation preincubated for 15 mins by luciferase gene reporter assay; type: cell-based
Escherichia coli = test: Antibacterial activity against Escherichia coli after 24 hrs by broth microdilution method; type: functional
[2] = system: Staphylococcus epidermidis; test: Antibacterial activity against Staphylococcus epidermis after 24 hrs by broth microdilution method; type: functional
[3] = as §1; type: cell-based
Jurkat [4] = test: Effect on NF-kappaB expressed in Jurkat 5.1 cells assessed as inhibition of TNF-alpha-induced IkappaBalpha phosphorylation at 10 uM preincubated for 15 mins by Western blot; type: cell-based
[5] = Effect on NF-kappaB expressed in HeLa-Tet-On cells assessed as inhibition of doxycyclin-induced HIV1-LTR transactivation preincubated for 15 mins by luciferase gene reporter assay; type: cell-based
Jurkat [6] = test: Effect on NF-kappaB expressed in Jurkat 5.1 cells assessed as inhibition of TNF-alpha-induced IkappaBalpha degradation at 10 uM preincubated for 15 mins by Western blot; type: cell-based

Row | SMILES | MIC (Escherichia coli) | MIC [2] | IC50 [3] | Activity (Jurkat [1]) | Activity (Jurkat [4]) | Activity [5] | Activity (Jurkat [6])
1 | COc1ccc(/C=C/C(=O)c2c(O)cc(OC)c(OC)c2OC)cc1OC | 10 µg/mL (≈ 26.7 µM) | 10 µg/mL (≈ 26.7 µM) |  | inactive |  |  | 
2 | CC(C)=CCC/C(C)=C/CC/C(C)=C/Cc1cc(C(=O)O)ccc1O |  |  |  | inactive |  |  | 
3 | CC1(C)S[C@@H]2[C@H](NC(=O)[C@H](N)c3ccccc3)C(=O)N2[C@H]1C(=O)O [AMPICILLIN] | 5 µg/mL (≈ 14.3 µM) | 1 µg/mL (≈ 2.86 µM) |  |  |  |  | 

Now from value to molecule, other results behind:

Row | MIC (Escherichia coli) | MIC [2] | IC50 [3] | SMILES | Activity (Jurkat [1]) | Activity (Jurkat [4]) | Activity [5] | Activity (Jurkat [6])
4 | 100 µg/mL (≈ 281 µM) | 50 µg/mL (≈ 140 µM) |  | CC(C)=CCC/C(C)=C/CCC1(C)CC(=O)c2cc(C(=O)O)ccc2O1 (configuration not stated) | inactive |  |  | 
5 | 5 µg/mL (≈ 17.3 µM) | 2.5 µg/mL (≈ 8.67 µM) |  | CCCCCCCCC/C=C/CCCc1ccc(O)cc1 [OBLIQUOL A] |  |  |  | 
6 | 5 µg/mL (≈ 16.4 µM) | 5 µg/mL (≈ 16.4 µM) | 5 µM | CCCCCCCCC/C=C/CCCc1ccc(O)c(O)c1 [OBLIQUOL B] |  | Active | inactive | Active
